In brackets after ≈: the same amount, converted by molar mass.
Key:
Aspergillus niger [1] = assay: Antimicrobial activity against Aspergillus niger ATCC 16404 after 48 hr by two-fold serial dilution method; format: functional; conditions: ATCC 16404, 48 h
Aspergillus terreus = assay: Antimicrobial activity against Aspergillus terreus after 48 hr by two-fold serial dilution method; format: functional
Saccharomyces cerevisiae [2] = assay: Antimicrobial activity against Saccharomyces cerevisiae ATCC 9763 after 48 hr by two-fold serial dilution method; format: functional; conditions: ATCC 9763, 48 h
Candida albicans [3] = assay: Antimicrobial activity against Candida albicans NCTC 2708 after 48 hr by two-fold serial dilution method; format: functional; conditions: NCTC 2708, 48 h
NCI-H226 = assay: Cytotoxicity against Homo sapiens (human) NCI-H226 cells after 48 hr by SRB assay; format: functional; conditions: NCI-H226, 48 h
CAKI-1 = assay: Cytotoxicity against Homo sapiens (human) CAKI-1 cells after 48 hr by SRB assay; format: functional; conditions: CAKI-1, 48 h
[4] = Cytotoxicity against Homo sapiens (human) Breast cancer cell after 48 hr by SRB assay; format: functional; conditions: Cancer cell lines
[5] = Cytotoxicity against Homo sapiens (human) Ovarian cancer cell after 48 hr by SRB assay; format: functional; conditions: Cancer cell lines
[6] = Cytotoxicity against Homo sapiens (human) Colon cancer cell after 48 hr by SRB assay; format: functional; conditions: Cancer cell lines
Escherichia coli = assay: Antimicrobial activity against Escherichia coli 5933 after 24 hr by agar cup diffusion technique; format: functional
SK-MEL-5 = assay: Cytotoxicity against Homo sapiens (human) SK-MEL-5 cells after 48 hr by SRB assay; format: functional; conditions: SK-MEL-5, 48 h
NCI-H460 = assay: Anticancer activity against Homo sapiens (human) NCI-H460 cells assessed as cell growth at 100 uM after 48 hr by Alamar blue assay; format: functional; conditions: NCI-H460, 48 h, read-out: Activity
CCRF-CEM [7] = assay: Cytotoxicity against Homo sapiens (human) CCRF-CEM cells after 48 hr by SRB assay; format: functional
HOP-92 = assay: Cytotoxicity against Homo sapiens (human) HOP92 cells after 48 hr by SRB assay; format: functional; conditions: HOP-92, 48 h
[8] = Cytotoxicity against Homo sapiens (human) CNS cancer cell after 48 hr by SRB assay; format: functional; conditions: Cancer cell lines
[9] = Cytotoxicity against Homo sapiens (human) NSCLC cell after 48 hr by SRB assay; format: functional
Bacillus spizizenii [10] = assay: Antimicrobial activity against Bacillus subtilis subsp. spizizenii ATCC 6633 after 24 hr by agar cup diffusion technique; format: functional
Aspergillus niger [11] = assay: Antimicrobial activity against Aspergillus niger ATCC 16404 after 48 hr by agar cup diffusion technique; format: functional
Saccharomyces cerevisiae [12] = assay: Antimicrobial activity against Saccharomyces cerevisiae ATCC 9763 after 48 hr by agar cup diffusion technique; format: functional
ACHN = assay: Cytotoxicity against Homo sapiens (human) ACHN cells after 48 hr by SRB assay; format: functional
[13] = Cytotoxicity against Homo sapiens (human) Leukemia cell after 48 hr by SRB assay; format: functional
Pseudomonas aeruginosa [14] = assay: Antimicrobial activity against Pseudomonas aeruginosa ATCC 9027 after 24 hr by agar cup diffusion technique; format: functional
[15] = Cytotoxicity against Homo sapiens (human) Prostate cancer cell after 48 hr by SRB assay; format: functional; conditions: Cancer cell lines
[16] = Cytotoxicity against Homo sapiens (human) Melanoma cell after 48 hr by SRB assay; format: functional
Malme-3M = assay: Cytotoxicity against Homo sapiens (human) MALME-3M cells after 48 hr by SRB assay; format: functional
Salmonella typhi [17] = assay: Antimicrobial activity against Salmonella enterica subsp. enterica serovar Typhi ATCC 13311 after 24 hr by agar cup diffusion technique; format: functional
Candida albicans [18] = assay: Antimicrobial activity against Candida albicans NCTC 2708 after 48 hr by agar cup diffusion technique; format: functional
A498 = assay: Cytotoxicity against Homo sapiens (human) A498 cells after 48 hr by SRB assay; format: functional; conditions: A498, 48 h
SF-268 = assay: Anticancer activity against Homo sapiens (human) SF268 cells assessed as cell growth at 100 uM after 48 hr by Alamar blue assay; format: functional; conditions: SF-268, 48 h, read-out: Activity
[19] = Cytotoxicity against Homo sapiens (human) Renal cancer cell after 48 hr by SRB assay; format: functional; conditions: Cancer cell lines
T47D = assay: Cytotoxicity against Homo sapiens (human) T47D cells after 48 hr by SRB assay; format: functional
MCF7 = assay: Anticancer activity against Homo sapiens (human) MCF7 cells assessed as cell growth at 100 uM after 48 hr by Alamar blue assay; format: functional; conditions: MCF7, 48 h, read-out: Activity
UO-31 = assay: Cytotoxicity against Homo sapiens (human) UO31 cells after 48 hr by SRB assay; format: functional; conditions: UO-31, 48 h
Proteus vulgaris [20] = assay: Antimicrobial activity against Proteus vulgaris ATCC 49132 after 24 hr by agar cup diffusion technique; format: functional
Staphylococcus aureus [21] = assay: Antimicrobial activity against Staphylococcus aureus NCTC 4163 after 24 hr by two-fold serial dilution method; format: functional; conditions: NCTC 4163, 24 h
Staphylococcus aureus [22] = assay: Antimicrobial activity against Staphylococcus aureus NCTC 4163 after 24 hr by agar cup diffusion technique; format: functional
CCRF-CEM [23] = assay: Cytotoxicity against Homo sapiens (human) CEM cells by XTT assay; format: cell-based
Proteus vulgaris [24] = assay: Antimicrobial activity against Proteus vulgaris ATCC 49132 after 24 hr by two-fold serial dilution method; format: functional; conditions: ATCC 49132, 24 h
[25] = tested on: Human immunodeficiency virus 1; assay: Antiviral activity against Human immunodeficiency virus 1 infected CEM cells assessed as inhibition of virus-induced cytopathic effect at 2 X 10^-5 M by XTT assay; format: functional; conditions: Human immunodeficiency virus 1, CCRF-CEM
Pseudomonas aeruginosa [26] = assay: Antimicrobial activity against Pseudomonas aeruginosa ATCC 9027 after 24 hr by two-fold serial dilution method; format: functional; conditions: ATCC 9027, 24 h
Bacillus spizizenii [27] = assay: Antimicrobial activity against Bacillus subtilis subsp. spizizenii ATCC 6633 after 24 hr by two-fold serial dilution method; format: functional; conditions: ATCC 6633, 24 h
Salmonella typhi [28] = assay: Antimicrobial activity against Salmonella enterica subsp. enterica serovar Typhi ATCC 13311 after 24 hr by two-fold serial dilution method; format: functional; conditions: ATCC 13311, 24 h

`Clc1ccccc1C(c1ccccc1)(c1ccccc1)n1ccnc1` [CLOTRIMAZOLE] showed an MIC (Aspergillus niger [1]) of 10 µg/mL (≈ 29 µM), an MIC (Aspergillus terreus) of 10 µg/mL (≈ 29 µM) and an MIC (Saccharomyces cerevisiae [2]) of 5 µg/mL (≈ 14.5 µM). It also gave an MIC (Candida albicans [3]) of 5 µg/mL (≈ 14.5 µM).

Work on `Cn1c(=O)c2nc3[nH]nc(C#N)c(=N)n3c2n(C)c1=O` yielded a GI50 (NCI-H226) of 54 µM, a GI50 (CAKI-1) of 51.7 µM and a GI50 [4] of 91.6 µM. It also gave a TGI [4] of 100 µM, a GI50 [5] of 97.9 µM and a TGI [5] of 100 µM. The GI50 [6] was 100 µM, the TGI [6] was 100 µM and the “inhibition zone (IZ)” value (Escherichia coli) was 14 mm. The GI50 (SK-MEL-5) was 45.9 µM, the growth at 100 µM (NCI-H460) was 62% and the GI50 (CCRF-CEM [7]) was 67.8 µM. For the same compound, the GI50 (HOP-92) was 31.8 µM, the GI50 [8] was 98 µM and the TGI [8] was 100 µM. For the same compound, the GI50 [9] was 87.3 µM, the TGI [9] was 100 µM and the “inhibition zone (IZ)” value (Bacillus spizizenii [10]) was 14 mm. The “inhibition zone (IZ)” value (Aspergillus niger [11]) was 12 mm, the “inhibition zone (IZ)” value (Saccharomyces cerevisiae [12]) was 14 mm and the GI50 (ACHN) was 44.3 µM. For the same compound, the GI50 [13] was 94.6 µM, the TGI [13] was 100 µM and the “inhibition zone (IZ)” value (Pseudomonas aeruginosa [14]) was 18 mm. For the same compound, the GI50 [15] was 86.3 µM, the TGI [15] was 100 µM and the GI50 [16] was 81.6 µM. For the same compound, the TGI [16] was 96.9 µM, the GI50 (Malme-3M) was 25.2 µM and the “inhibition zone (IZ)” value (Salmonella typhi [17]) was 12 mm. The “inhibition zone (IZ)” value (Candida albicans [18]) was 12 mm, the GI50 (A498) was 51.4 µM and the growth at 100 µM (SF-268) was 47%. It also gave a GI50 [19] of 72.2 µM, a TGI [19] of 100 µM and a GI50 (T47D) of 32.9 µM. For the same compound, the growth at 100 µM (MCF7) was 14%, the GI50 (UO-31) was 50.6 µM and the “inhibition zone (IZ)” value (Proteus vulgaris [20]) was 19 mm.

With `Cn1c(=O)c2c(n(C)c1=O)n1c(-c3ccccc3)nnc1n2C` the “inhibition zone (IZ)” value (Escherichia coli) was 14 mm, the growth at 100 µM (NCI-H460) was 98% and the “inhibition zone (IZ)” value (Bacillus spizizenii [10]) was 15 mm. For the same compound, the “inhibition zone (IZ)” value (Aspergillus niger [11]) was 16 mm, the “inhibition zone (IZ)” value (Saccharomyces cerevisiae [12]) was 15 mm and the “inhibition zone (IZ)” value (Pseudomonas aeruginosa [14]) was 17 mm. The “inhibition zone (IZ)” value (Salmonella typhi [17]) was 11 mm, the “inhibition zone (IZ)” value (Candida albicans [18]) was 12 mm and the growth at 100 µM (SF-268) was 90%. The growth at 100 µM (MCF7) was 84% and the “inhibition zone (IZ)” value (Proteus vulgaris [20]) was 19 mm.

For `CCSc1nnc2n(C)c3c(=O)n(C)c(=O)n(C)c3n12`, the “inhibition zone (IZ)” value (Escherichia coli) was 12 mm, the “inhibition zone (IZ)” value (Bacillus spizizenii [10]) was 13 mm and the “inhibition zone (IZ)” value (Saccharomyces cerevisiae [12]) was 13 mm. For the same compound, the “inhibition zone (IZ)” value (Pseudomonas aeruginosa [14]) was 19 mm, the “inhibition zone (IZ)” value (Candida albicans [18]) was 11 mm and the MIC (Staphylococcus aureus [21]) was less than 200 µg/mL. The “inhibition zone (IZ)” value (Staphylococcus aureus [22]) was 20 mm and the “inhibition zone (IZ)” value (Proteus vulgaris [20]) was 19 mm.

In the case of `Cn1c(=O)c2nc3[nH]nc(C(=O)O)c(=O)n3c2n(C)c1=O`, the “inhibition zone (IZ)” value (Escherichia coli) is reported as 13 mm, the MIC (Aspergillus niger [1]) is reported as less than 200 µg/mL and the “inhibition zone (IZ)” value (Bacillus spizizenii [10]) is reported as 14 mm. The “inhibition zone (IZ)” value (Aspergillus niger [11]) was 20 mm, the “inhibition zone (IZ)” value (Saccharomyces cerevisiae [12]) was 14 mm and the “inhibition zone (IZ)” value (Pseudomonas aeruginosa [14]) was 16 mm. For the same compound, the IC50 (CCRF-CEM [23]) was greater than 200 µM, the “inhibition zone (IZ)” value (Candida albicans [18]) was 13 mm and the MIC (Proteus vulgaris [24]) was less than 200 µg/mL. The “inhibition zone (IZ)” value (Staphylococcus aureus [22]) was 14 mm, the “inhibition zone (IZ)” value (Proteus vulgaris [20]) was 21 mm and the inhibition at 20 µM [25] was 3.73%.

In the case of `Cn1c(=O)c2c(n(C)c1=O)n1c(-c3ccc(Br)cc3)nnc1n2C`, the “inhibition zone (IZ)” value (Escherichia coli) is reported as 12 mm, the MIC (Aspergillus niger [1]) is reported as less than 100 µg/mL and the “inhibition zone (IZ)” value (Bacillus spizizenii [10]) is reported as 11 mm. The “inhibition zone (IZ)” value (Aspergillus niger [11]) was 22 mm, the “inhibition zone (IZ)” value (Saccharomyces cerevisiae [12]) was 13 mm and the “inhibition zone (IZ)” value (Pseudomonas aeruginosa [14]) was 20 mm. For the same compound, the “inhibition zone (IZ)” value (Candida albicans [18]) was 14 mm, the MIC (Proteus vulgaris [24]) was less than 100 µg/mL and the MIC (Pseudomonas aeruginosa [26]) was less than 200 µg/mL. For the same compound, the “inhibition zone (IZ)” value (Staphylococcus aureus [22]) was 14 mm and the “inhibition zone (IZ)” value (Proteus vulgaris [20]) was 22 mm.

Work on `CC1(C)S[C@@H]2[C@H](NC(=O)[C@H](N)c3ccccc3)C(=O)N2[C@H]1C(=O)O` [AMPICILLIN] yielded an MIC (Bacillus spizizenii [27]) of 5 µg/mL (≈ 14.3 µM), an MIC (Proteus vulgaris [24]) of 50 µg/mL (≈ 143 µM) and an MIC (Pseudomonas aeruginosa [26]) of 100 µg/mL (≈ 286 µM). It also gave an MIC (Staphylococcus aureus [21]) of 5 µg/mL (≈ 14.3 µM) and an MIC (Salmonella typhi [28]) of 100 µg/mL (≈ 286 µM).

With `CC(=O)c1n[nH]c2nc3c(=O)n(C)c(=O)n(C)c3n2c1=O` the “inhibition zone (IZ)” value (Escherichia coli) was 14 mm, the “inhibition zone (IZ)” value (Bacillus spizizenii [10]) was 14 mm and the “inhibition zone (IZ)” value (Saccharomyces cerevisiae [12]) was 13 mm. For the same compound, the IC50 (CCRF-CEM [23]) was greater than 200 µM, the “inhibition zone (IZ)” value (Candida albicans [18]) was 13 mm and the MIC (Proteus vulgaris [24]) was less than 100 µg/mL. For the same compound, the “inhibition zone (IZ)” value (Proteus vulgaris [20]) was 23 mm and the inhibition at 20 µM [25] was 1.43%.

Reference: ChEMBL document CHEMBL3046414, “Synthesis, anticancer, anti-HIV-1, and antimicrobial activity of some tricyclic triazino and triazolo[4,3-e]purine derivatives” (Med Chem Res, 2012)
